Test results reported in PubChem BioAssay (NCI).
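Step 1: Grow cells in 96-well plates. Step 2: Expose to compound for 48 hours at 5 concentrations. Step 3: Interpolate endpoints linearly; if unreached, use highest concentration. At the TGI there is no net growth.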

What was measured:
Experiment in all cases: NCI anticancer screen, dose series, 48 h
[1] = system: NCI-H226 lung
[2] = system: DU-145 prostate
[3] = system: 786-0 renal
[4] = system: SF-268 CNS
[5] = system: MOLT-4 leukemia
[6] = system: SK-MEL-2 melanoma
[7] = system: EKVX NSCLC
[8] = system: BT-549 breast
[9] = system: HL-60(TB) leukemia
[10] = system: HOP-62 NSCLC
[11] = system: NCI-H522 lung
[12] = system: SW-620 colon
[13] = system: ACHN renal
[14] = system: SF-295 CNS
[15] = system: NCI/ADR-RES ovarian
[16] = system: SK-OV-3 ovarian
[17] = system: SNB-19 CNS
[18] = system: MDA-MB-435
[19] = system: A549 NSCLC
[20] = system: MDA-MB-231 breast
[21] = system: CCRF-CEM leukemia
[22] = system: SK-MEL-28 melanoma
[23] = system: MCF7 breast
[24] = system: MDA-N
[25] = system: HT29 colon
[26] = system: RXF 393 renal
[27] = system: TK-10 renal
[28] = system: OVCAR-3 ovarian
[29] = system: COLO 205 colon
[30] = system: HS 578T breast
[31] = system: K-562 leukemia
[32] = system: OVCAR-5 ovarian
[33] = system: NCI-H23 lung
[34] = system: RPMI-8226 leukemia
[35] = system: HCT-15 colon
[36] = system: OVCAR-4 ovarian
[37] = system: HCC-2998 colon
[38] = system: IGROV1 ovarian
[39] = system: UACC-257 melanoma
[40] = system: NCI-H460 lung
[41] = system: SF-539 CNS
[42] = system: KM12 colon
[43] = system: LOX IMVI melanoma
[44] = system: CAKI-1 renal
[45] = system: PC-3 prostate
[46] = system: UACC-62 melanoma
[47] = system: HOP-92 NSCLC
[48] = system: SN12C renal
[49] = system: UO-31 renal
[50] = system: HCT-116 colon
[51] = system: MALME-3M melanoma
[52] = system: SK-MEL-5 melanoma
[53] = system: A498 renal
[54] = system: OVCAR-8 ovarian
[55] = system: T-47D breast
[56] = system: M14 melanoma
[57] = system: U251 CNS

Measured: TGI

O=c1c(Cc2ccc(Cl)cc2)nnc2sc(-c3ccc(-c4ccc(Cl)cc4Cl)o3)nn12
> 100 µM: all assays above
